Reference: patent US8889876B2, “Histone deacetylase inhibitors and uses thereof” (Jiangsu Hengyi Pharmaceutical Co., Ltd., priority 2008, dated 2014)
≈ marks a conversion by molar mass, not a printed value.

Key:
[1] = system: Hut78 T-cell Leukemia cell; assay: CCK-8 proliferation inhibition, Hut78; format: cell-based; conditions: for inhibition at 10 µM / inhibition at 100 µM: Homo sapiens, read-out: Hut-78 (inhibition %); for inhibition at 10 µM: HuT78, 10 μM; for inhibition at 100 µM: HuT78, 100 μM
Method in brief: (§1)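 Read-out is CCK-8 colorimetric viability, expressed as the inhibition rate relative to untreated cells at fixed compound levels of 100 μM and 10 μM.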

[2] = system: Hep3B2.1-7 human liver cancer cells; assay: CCK-8 proliferation inhibition, Hep3B2.1-7; format: cell-based; conditions: CCK-8 method; for inhibition at 10 µM / inhibition at 100 µM: Homo sapiens, Hep3B
Method in brief: as §1

[3] = system: K562 human chronic myeloid leukemia cells; assay: CCK-8 proliferation inhibition, K562; format: cell-based; conditions: for inhibition at 10 µM / inhibition at 100 µM: Homo sapiens; for inhibition at 10 µM: K562, 10 μM; for inhibition at 100 µM: K562, 100 μM
Method in brief: as §1

[4] = system: K562: human chronic myeloid leukemia cell strain; assay: MTT cytotoxicity to tumor cell strains, K562; format: cell-based; conditions: for IC50: Homo sapiens, read-out: Cell activity (IC50, μg/ml) K562
Experimental: (§2) The cytotoxicity of samples to tumor cell strains is determined through MTT.

histone deacetylase [5] = assay: in vitro inhibition activity on histone deacetylase (rat liver homogenate, MAL fluorescent substrate); format: biochemical, rats; conditions: n = 4, 37° C., 16 hours
Experimental: A 96-well plate (black) for determining […] is made by Costar Company of U.S. The histone deacetylase is obtained by homogenization of liver of rats. The histone deacetylase reacts with small molecular fluorescent substrate MAL such that the substrate MAL is deacetylated to become ML.
The compound to be detected is dissolved with 200 μL of DMSO. The stock solution of the compound to be detected is diluted with PBS to a concentration of the working solution. The histone deacetylase, the MAL fluorescent substrate and the compound to be detected are mixed in a water bath at 37° C. and reacted 16 hours. The final concentration of the compound to be detected is: MS275 and its similar compound: 10, 100 μmol/.
The reaction solution is extracted with ethyl acetate. The extract is pumped in vacuum and thereto added 110 μL of methanol (40%). Taking 50 μL/well to a 96-well plate and making a fluorescent detection at 325/390 nm.
The negative control wherein histone deacetylase is not added to the reaction is 100% inhibition. The control that only contains histone deacetylase without any inhibitor is the background (0% inhibition). The inhibition rate of the sample to be detected=(the detected fluorescent value−the background)/(the fluorescent value of the negative control−background)×100%
The inhibition rate and the standard deviation in the results are the average inhibition percentage and the standard deviation of each parallel well in each dosage group.

[6] = system: Colo320 human rectal cancer cells; assay: CCK-8 proliferation inhibition, Colo320; format: cell-based; conditions: CCK-8 method; for inhibition at 10 µM / inhibition at 100 µM: Homo sapiens, COLO 320
Method in brief: as §1

[7] = system: A549 human lung cancer cells; assay: CCK-8 proliferation inhibition, A549; format: cell-based; conditions: CCK-8 method; for inhibition at 10 µM / inhibition at 100 µM: Homo sapiens, A549
Method in brief: as §1

histone deacetylase [8] = assay: in vitro inhibition of histone deacetylase by HDAC inhibitor screening kit (Biovision K340-100); format: biochemical
Experimental: An assay for determining the in vitro inhibition activity of the compound on histone deacetylase is conducted according to the specification of HDAC inhibitor screeing kid (Biovision Company/Catalog #K340-100). […]

[9] = system: PC-3 human prostate cancer; assay: CCK-8 proliferation inhibition, PC-3; format: cell-based; conditions: CCK-8 method; for inhibition at 10 µM / inhibition at 100 µM: Homo sapiens
Method in brief: as §1

[10] = system: MDA-MB-435s human breast cancer cells; assay: CCK-8 proliferation inhibition, MDA-MB-435s; format: cell-based; conditions: CCK-8 method; for inhibition at 10 µM / inhibition at 100 µM: Homo sapiens, MDA-MB-435S
Method in brief: as §1

[11] = system: A549 (human lung adenocarcinoma cells); assay: MTT cytotoxicity to tumor cell strains, A549; format: cell-based; conditions: for IC50: Homo sapiens, read-out: Cell activity (IC50, μg/ml) A549
Experimental: as §2

[12] = system: Jurkat E6-1 human T-cell lymphoma; assay: CCK-8 proliferation inhibition, Jurkat E6-1; format: cell-based; conditions: for inhibition at 10 µM / inhibition at 100 µM: Homo sapiens; for inhibition at 10 µM: Jurkat E6.1, 10 μM; for inhibition at 100 µM: Jurkat E6.1, 100 μM
Method in brief: as §1

[13] = system: Hut 78 (T-cell Leukemia cell); assay: MTT cytotoxicity to tumor cell strains, Hut 78; format: cell-based; conditions: Hut 78, MTT; for IC50: Homo sapiens, HuT78, read-out: Cell activity (IC50, μg/ml) Hut 78
Experimental: as §2

[14] = system: PANC-1 human pancreatic cancer cells; assay: CCK-8 proliferation inhibition, PANC-1; format: cell-based; conditions: for inhibition at 10 µM / inhibition at 100 µM: Homo sapiens; for inhibition at 10 µM: PANC-1, 10 μM; for inhibition at 100 µM: PANC-1, 100 μM
Method in brief: as §1

With Nc1ccccc1NC(=O)c1ccc(CNC(=O)OCc2cccnc2)cc1 [MS-275, reference compound] the “Hut-78 (inhibition %)” value ([1]; 10 μM) was 61.8%, the “Hut-78 (inhibition %)” value ([1]; 100 μM) was 85.3% and the “Hep3B (inhibition %)” value ([2]; compound concentration 10 μM) was 10.8%. For the same molecule, the “Hep3B (inhibition %)” value ([2]; compound concentration 100 μM) was 52.1%, the “K562 (inhibition %)” value ([3]; 10 μM) was 66.2% and the “K562 (inhibition %)” value ([3]; 100 μM) was 74.6%. The “Cell activity (IC50, μg/ml) K562” value [4] was 3.20 µg/mL, the “inhibition rate % average number” value (histone deacetylase [5]; dosage 10 μmol/L) was 45.588% and the “inhibition rate % average number” value (histone deacetylase [5]; dosage 100 μmol/L) was 66.300%. For the same molecule, the “Colo320 (inhibition %)” value ([6]; compound concentration 10 μM) was 18.0%, the “Colo320 (inhibition %)” value ([6]; compound concentration 100 μM) was 61.6% and the “A549 (inhibition %)” value ([7]; compound concentration 10 μM) was 58.9%. For the same molecule, the “A549 (inhibition %)” value ([7]; compound concentration 100 μM) was 92.3%, the “Inhibition rate(%)” value (histone deacetylase [8]; 3.91 μM) was 32.5% and the “Inhibition rate(%)” value (histone deacetylase [8]; 62.5 μM) was 60.5%. The “Inhibition rate(%)” value (histone deacetylase [8]; 2 mM) was 82.2%, the “PC-3 (inhibition %)” value ([9]; compound concentration 10 μM) was 12.5% and the “PC-3 (inhibition %)” value ([9]; compound concentration 100 μM) was 71.5%. For the same molecule, the “435s(inhibition %)” value ([10]; compound concentration 10 μM) was 2.7%, the “435s(inhibition %)” value ([10]; compound concentration 100 μM) was 59.3% and the “Cell activity (IC50, μg/ml) A549” value [11] was 24.42 µg/mL. For the same molecule, the “Jurkat E6-1 (inhibition %)” value ([12]; 10 μM) was 89.5%, the “Jurkat E6-1 (inhibition %)” value ([12]; 100 μM) was 96.1% and the “Cell activity (IC50, μg/ml) Hut 78” value [13] was 0.15 µg/mL. For the same molecule, the “PANC-1 (inhibition %)” value ([14]; 10 μM) was 12.4% and the “PANC-1 (inhibition %)” value ([14]; 100 μM) was 31.6%.
For Nc1ncccc1NC(=O)c1ccc(CNC(=O)OCc2cccnc2)cc1 [V-4, N-(2-amino-3-pyridyl)-4-[(3-pyridylmethoxyacyl)aminomethyl]benzamide], the inhibition at 10 µM [1] was 36%, the inhibition at 100 µM [1] was 67.2% and the inhibition at 10 µM ([2]; compound concentration 10 μM) was 2.6%. For the same molecule, the inhibition at 100 µM ([2]; compound concentration 100 μM) was 37.4%, the inhibition at 10 µM [3] was 22.4% and the inhibition at 100 µM [3] was 30.8%. For the same molecule, the IC50 [4] was > 100 µg/mL, the “inhibition rate % average number” value (histone deacetylase [5]; dosage 10 μmol/L) was 1.644% and the “inhibition rate % average number” value (histone deacetylase [5]; dosage 100 μmol/L) was 12.033%. It also gave an inhibition at 10 µM ([6]; compound concentration 10 μM) of 33.2%, an inhibition at 100 µM ([6]; compound concentration 100 μM) of 78.3% and an inhibition at 10 µM ([7]; compound concentration 10 μM) of 50.6%. For the same molecule, the inhibition at 100 µM ([7]; compound concentration 100 μM) was 89.7%, the “Inhibition rate(%)” value (histone deacetylase [8]; 3.91 μM) was 9.4% and the “Inhibition rate(%)” value (histone deacetylase [8]; 62.5 μM) was 19.8%. The “Inhibition rate(%)” value (histone deacetylase [8]; 2 mM) was 65.2%, the inhibition at 10 µM ([9]; compound concentration 10 μM) was 79.5% and the inhibition at 100 µM ([9]; compound concentration 100 μM) was 91.5%. The inhibition at 10 µM ([10]; compound concentration 10 μM) was 26.7%, the inhibition at 100 µM ([10]; compound concentration 100 μM) was 87.5% and the IC50 [11] was > 100 µg/mL. For the same molecule, the inhibition at 10 µM [12] was 48.5%, the inhibition at 100 µM [12] was 79.3% and the IC50 [13] was 4.21 µg/mL (≈ 11.2 µM). It also gave an inhibition at 10 µM [14] of 40.2% and an inhibition at 100 µM [14] of 65.4%.
For Nc1cnccc1NC(=O)c1ccc(CNC(=O)OCc2cccnc2)cc1 [V-5], the inhibition at 10 µM [1] was 43.4%, the inhibition at 100 µM [1] was 72.8% and the inhibition at 10 µM ([2]; compound concentration 10 μM) was 31.2%. It also gave an inhibition at 100 µM ([2]; compound concentration 100 μM) of 53.6%, an inhibition at 10 µM [3] of 21% and an inhibition at 100 µM [3] of 64.4%. The IC50 [4] was > 100 µg/mL, the “inhibition rate % average number” value (histone deacetylase [5]; dosage 10 μmol/L) was 9.422% and the “inhibition rate % average number” value (histone deacetylase [5]; dosage 100 μmol/L) was 37.240%. It also gave an inhibition at 10 µM ([6]; compound concentration 10 μM) of 39.6%, an inhibition at 100 µM ([6]; compound concentration 100 μM) of 92.9% and an inhibition at 10 µM ([7]; compound concentration 10 μM) of 65.6%. The inhibition at 100 µM ([7]; compound concentration 100 μM) was 84.8%, the “Inhibition rate(%)” value (histone deacetylase [8]; 3.91 μM) was 7.6% and the “Inhibition rate(%)” value (histone deacetylase [8]; 62.5 μM) was 28.0%. The “Inhibition rate(%)” value (histone deacetylase [8]; 2 mM) was 77.1%, the inhibition at 10 µM ([9]; compound concentration 10 μM) was 90.3% and the inhibition at 100 µM ([9]; compound concentration 100 μM) was 92.4%. The inhibition at 10 µM ([10]; compound concentration 10 μM) was 35.8%, the inhibition at 100 µM ([10]; compound concentration 100 μM) was 86.9% and the IC50 [11] was > 100 µg/mL. It also gave an inhibition at 10 µM [12] of 58.5%, an inhibition at 100 µM [12] of 85.9% and an IC50 [13] of 0.4 µg/mL (≈ 1.06 µM). It also gave an inhibition at 10 µM [14] of 20.7% and an inhibition at 100 µM [14] of 74.1%.
